Data reported in ChEMBL document CHEMBL6083260, “Dizocilpine derivatives as neuroprotective NMDA receptor antagonists without psychomimetic side effects” (Eur J Med Chem, 2024).
pIC50: −log10 of the molar value. Active and inactive are the calls of the source. The calls are words filed in the database; no cut-off is given here.

Columns and labels:
[1] = Cytotoxicity against CHO-K1 cells assessed as reduction in cell viability incubated for 24 hrs by MTT assay; format: toxicity, cell-based; conditions: Chinese hamster (Cricetulus griseus)
[2] = molecular target: T1, Glutamate NMDA receptor; GRIN1/GRIN2A (Homo sapiens, UniProt Q05586+Q12879); assay: Antagonist activity at human GluN1/GluN2A receptor expressed in HEK293 cells assessed as inhibition of L-glutamate induced response at 3 uM at -60 mV membrane potential by patch clamp electrophysiology analysis; format: cell-based
[3] = molecular target: T2, Glutamate NMDA receptor; GRIN1/GRIN2B (Homo sapiens, UniProt Q05586+Q13224); assay: Antagonist activity at human GluN1/GluN2B receptor expressed in HEK293 cells assessed as inhibition of L-glutamate induced response at 3 uM at -60 mV membrane potential by patch clamp electrophysiology analysis; format: cell-based
[4] = Inhibition of human recombinant AChE measured by Ellman's method
[5] = molecular target: T2, Glutamate NMDA receptor; GRIN1/GRIN2B; assay: Antagonist activity at human GluN1/GluN2B receptor expressed in HEK293 cells assessed as inhibition of L-glutamate induced response at -40 mV membrane potential by patch clamp electrophysiology analysis; format: cell-based
[6] = molecular target: T1, Glutamate NMDA receptor; GRIN1/GRIN2A; assay: Antagonist activity at human GluN1/GluN2A receptor expressed in HEK293 cells assessed as inhibition of L-glutamate induced response at -60 mV membrane potential by patch clamp electrophysiology analysis; format: cell-based
[7] = molecular target: T2, Glutamate NMDA receptor; GRIN1/GRIN2B; assay: Antagonist activity at human GluN1/GluN2B receptor expressed in HEK293 cells assessed as inhibition of L-glutamate induced response at -60 mV membrane potential by patch clamp electrophysiology analysis; format: cell-based
[8] = molecular target: T1, Glutamate NMDA receptor; GRIN1/GRIN2A; assay: Antagonist activity at human GluN1/GluN2A receptor expressed in HEK293 cells assessed as inhibition of L-glutamate induced response at -40 mV membrane potential by patch clamp electrophysiology analysis; format: cell-based
[9] = molecular target: T2, Glutamate NMDA receptor; GRIN1/GRIN2B; assay: (§1) Antagonist activity at human GluN1/GluN2B receptor expressed in HEK293 cells assessed as inhibition of L-glutamate/glycine-induced steady state conditions of the current response at holding - 60 mV potential by measuring onset time constant at 1 to 100 uM incubated for 2 min followed by compound washout measured by patch clamp electrophysiology analysis; format: cell-based; conditions: filed as antagonist, dose 1-100 µM
[10] = Toxicity in male Wistar rat assessed as effect on pre-pulse inhibition of acoustic startle response induced deficit at 1 to 10 mg/kg, ip by prepulse inhibition test; format: organism-based; conditions: in vivo, dose 1-10 mg/kg
[11] = molecular target: T1, Glutamate NMDA receptor; GRIN1/GRIN2A; assay: Antagonist activity at human GluN1/GluN2A receptor expressed in HEK293 cells assessed as inhibition of offset time constant at -60 mV membrane potential by patch clamp electrophysiology analysis relative to control; format: cell-based; conditions: filed as antagonist, dose 1.0 µM
[12] = Toxicity in male Wistar rat assessed as decrease respiration at 20 mg/kg, ip; format: organism-based; conditions: in vivo
[13] = molecular target: T1, Glutamate NMDA receptor; GRIN1/GRIN2A; assay: as §1, with “GluN1/GluN2A” for “GluN1/GluN2B”, “offset” for “onset”; format: cell-based; conditions: filed as antagonist, dose 1-100 µM
[14] = molecular target: T2, Glutamate NMDA receptor; GRIN1/GRIN2B; assay: as §1, with “offset” for “onset”; format: cell-based; conditions: filed as antagonist, dose 1-100 µM
[15] = Toxicity in male Wistar rat assessed as locomotion at 1 to 10 mg/kg, ip incubated for 15 min by open field test; format: organism-based; conditions: in vivo, 0.25 h, dose 1-10 mg/kg
[16] = molecular target: T1, Glutamate NMDA receptor; GRIN1/GRIN2A; assay: as §1, with “GluN1/GluN2A” for “GluN1/GluN2B”; format: cell-based; conditions: filed as antagonist, dose 1-100 µM
[17] = Toxicity in male Wistar rat assessed as no observed adverse effect level (NOAEL) at 10 mg/kg, ip; format: organism-based; conditions: in vivo
[18] = Toxicity in male Wistar rat assessed as loss of activity at 20 mg/kg, ip; format: organism-based; conditions: in vivo
Rattus norvegicus = assay: In vivo neuroprotective activity in NMDA-induced hippocampal lesion male Wistar rat model assessed as decrease in damage score at 30 uM; format: functional, organism-based
[19] = molecular target: T1, Glutamate NMDA receptor; GRIN1/GRIN2A; assay: Antagonist activity at human GluN1/GluN2A receptor expressed in HEK293 cells assessed as inhibition of […] response at 1 uM onset measured by patch clamp electrophysiology analysis; format: cell-based; conditions: filed as antagonist
[20] = Toxicity in male Wistar rat assessed as effect on pre-pulse inhibition of acoustic startle response induced deficit at 0.3 mg/kg, ip mg/kg by prepulse inhibition test; format: organism-based; conditions: in vivo
[21] = Toxicity in male Wistar rat assessed as hyperlocomotion at 0.2 mg/kg, ip incubated for 10 min by open field test; format: organism-based; conditions: in vivo

SMILES | IC50 at 24 h [1] | inhibition ([2]; filed as antagonist) | inhibition ([3]; filed as antagonist) | inhibition [2] | other results
CNC1c2ccccc2C=Cc2ccccc21 | 299 µM | 54.3% | 68.9% | – | –
CCNC1c2ccccc2C=Cc2ccccc21 | 498 µM | – | 59.9% | 39.9% | –
CCN1CCN(C2c3ccccc3CCc3ccccc32)CC1 | 147 µM | – | – | 7.64% | inhibition [3]: 5.22%
c1ccc2c(c1)CCc1ccccc1C2NC1CCCCC1 | 85 µM | 79.4% | 86% | – | pIC50 [4]: 4.84
CCN(CC)C1c2ccccc2CCc2ccccc21 | 86.4 µM | 68.4% | 75% | – | –
CCNC1c2ccccc2CCc2ccccc21 | 364 µM | – | 51.8% | 34% | –
CC(C)NC1c2ccccc2CCc2ccccc21 | 263 µM | 52.2% | 76.9% | – | –
CCCCNC1c2ccccc2CCc2ccccc21 | 128 µM | 76.4% | 85.8% | – | –
C1=Cc2ccccc2C(N2CCOCC2)c2ccccc21 | 165 µM | – | 57.6% | 31.9% | –
CNC1(c2ccccc2Cl)CCCCC1=O (stereo not drawn) [KETAMINE] | – | – | – | – | pIC50 [5]: 4.82; pIC50 [6]: 6.30; pIC50 [7]: 6.29; pIC50 [8]: 4.27
CC(C)CNC1c2ccccc2C=Cc2ccccc21.Cl | 102 µM | 93.2% | 91.8% | – | Activity [9]: Active; pIC50 [5]: 4.93; Activity [10]: Toxic; inhibition [11]: 99%; Activity [12]: Toxic; Activity [13]: Active; Compound Exhibited Slower Time Constant Offset Than 3L; Activity [14]: Active; Compound Exhibited Slower Time Constant Offset Than 3L; Activity [15]: Non-toxic; Activity [16]: Active; Activity [17]: Non-toxic; pIC50 [8]: 4.65; Activity [18]: Toxic
C1=Cc2ccccc2C(NC2CCCCC2)c2ccccc21 | 81.3 µM | 92.1% | 92.4% | – | pIC50 [4]: 5.07
OCCNC1c2ccccc2C=Cc2ccccc21 | 333 µM | – | 48.8% | 38.2% | –
C1=Cc2ccccc2C(NC2CC2)c2ccccc21 | 260 µM | 45% | 57.2% | – | –
C1=Cc2ccccc2C(N2CCCCC2)c2ccccc21 | 381 µM | – | 58.4% | 29.9% | –
C1=Cc2ccccc2C(N2CCCC2)c2ccccc21 | > 900 µM | 48.6% | 85.5% | – | –
c1ccc2c(c1)CCc1ccccc1C2N1CCCC1 | 97.7 µM | 49.8% | 62.1% | – | –
c1ccc2c(c1)CCc1ccccc1C2NC1CC1 | 177 µM | 40.1% | 53.6% | – | –
c1ccc2c(c1)CCc1ccccc1C2N1CCCCC1 | 73.8 µM | – | – | 5.4% | inhibition [3]: 5.2%
CC(C)NC1c2ccccc2C=Cc2ccccc21 | 251 µM | 75.6% | 76% | – | –
c1ccc2c(c1)CCc1ccccc1C2N1CCOCC1 | 95.2 µM | – | – | 6.78% | inhibition [3]: 3.43%
COCCNC1c2ccccc2CCc2ccccc21 | 385 µM | – | 66.6% | 34.9% | –
Cl.OCCNC1c2ccccc2CCc2ccccc21 | 720 µM | 48% | 49.7% | – | Activity [9]: Active; pIC50 [5]: 3.67; Activity [10]: Toxic; inhibition [11]: 99%; Activity [12]: Toxic; Activity (Rattus norvegicus): Active; Activity [15]: Non-toxic; Activity [16]: Active; TIME [19]: 0.000112 h; Activity [17]: Non-toxic; pIC50 [8]: 3.56; Activity [18]: Toxic
C[C@]12N[C@H](Cc3ccccc31)c1ccccc12 [DIZOCILPINE] | – | – | – | – | Activity [20]: Toxic; Activity [21]: Toxic
COCCNC1c2ccccc2C=Cc2ccccc21 | 390 µM | – | 60% | 35.6% | –
CC(C)CNC1c2ccccc2CCc2ccccc21 | 92.4 µM | 76.8% | 91.6% | – | –
CNC1c2ccccc2CCc2ccccc21 | 410 µM | 82.3% | 71% | – | –
CN1CCN(C2c3ccccc3CCc3ccccc32)CC1 | 122 µM | – | – | 9.7% | inhibition [3]: 9.49%
CCCCNC1c2ccccc2C=Cc2ccccc21 | 101 µM | 81.1% | 79.2% | – | –
